Experimental findings from US6913768B2, “Sustained release delivery of amphetamine salts” (Shire Laboratories, Inc., priority 2002, dated 2005) are described below.

The series in a line: Single-dose mean plasma concentration profile of […] XR 20 mg (FIG. 1). The note with it: human, oral, […] XR 20 mg single dose, mean over about 20 patients. Type of series: in vivo. The method, then: See, e.g., Fundamentals of Clinical Pharmacokinetics. J. G. Wagner, Drug Intelligence Publications, Inc., Hamilton, Ill., 1975; Guidance for Industry, Bioavailability and Bioequivalence Studies for Orally Administered Drug Products-General Considerations, FDA, CDER. October 2000.
Individual patients were treated with […] XR®, 20 mg. Subjects received either one single dose administered with food or one single dose administered following a 10-hour overnight fast through continued fast 3.5 hours post dosing. The mean plasma concentration profile of FIG. 1 was obtained from averaging such individuals' curves.

In general, Cmax refers to the maximum level reached in the sampled fluid or tissue. The Tmax is the time from dosing to the highest level. By AUC is commonly meant concentration integrated over time. In the case of `C[C@H](N)Cc1ccccc1` [d-amphetamine], the Cmax was determined as 28 ng/mL and the Tmax turned out to be 7.1 h. For the same molecule, the AUC (read-out: AUC (time zero to infinity)) was 557 ng·h/mL.
